Test results taken from paper PMC6940912, “Novel Drug-Like Somatostatin Receptor 4 Agonists are Potential Analgesics for Neuropathic Pain” (International Journal of Molecular Sciences, 2019).

Experiments:
PDE4D2 = target: T1, PDE4D2 (Homo sapiens, UniProt Q08499); experiment: Selectivity profile (Eurofins Cerep), enzyme inhibition; assay type: biochemical; settings: % inhibition of control enzyme activity, read-out: Enzymatic Activity (%)
T1 construct: Eurofins Cerep (contract assay)
Experimental: (§1) The evaluation was performed by Eurofins Cerep (France). Compound binding was calculated as a % inhibition of the binding of a radioactively labeled ligand specific for each target. Enzyme inhibition effect was calculated as a % inhibition of control enzyme activity. Cellular agonist effect was calculated as a % of control response to a known reference agonist for each target, and cellular antagonist effect was calculated as a % inhibition of control reference agonist response for each target. In each experiment the respective reference compound was tested concurrently with Compound 1 [71, 72, 73, 74, 75, 76, 77, 78]. See in Supplementary Materials.

MAOA = target: T2, MAOA (Homo sapiens, UniProt P21397); experiment: as above; assay type: biochemical; settings: % inhibition of control enzyme activity, read-out: Enzymatic Activity (%)
T2 construct: Eurofins Cerep (contract assay)
T2 sequence (P21397 1-527): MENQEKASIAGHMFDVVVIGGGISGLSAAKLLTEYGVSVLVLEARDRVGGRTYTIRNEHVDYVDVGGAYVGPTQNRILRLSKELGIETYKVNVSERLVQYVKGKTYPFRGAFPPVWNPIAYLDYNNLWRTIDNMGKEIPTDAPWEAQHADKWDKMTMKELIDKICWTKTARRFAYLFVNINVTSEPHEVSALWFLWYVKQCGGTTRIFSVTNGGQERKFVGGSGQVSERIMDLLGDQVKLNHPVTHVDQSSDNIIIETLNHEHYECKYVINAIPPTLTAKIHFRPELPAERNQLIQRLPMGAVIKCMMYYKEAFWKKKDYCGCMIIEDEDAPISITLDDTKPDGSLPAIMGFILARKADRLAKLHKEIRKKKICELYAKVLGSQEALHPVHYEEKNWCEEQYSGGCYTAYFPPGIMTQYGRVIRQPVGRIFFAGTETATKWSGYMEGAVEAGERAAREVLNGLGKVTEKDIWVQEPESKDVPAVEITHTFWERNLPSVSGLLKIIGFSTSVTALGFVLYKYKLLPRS
Experimental: as §1

PDE3A = target: T3, PDE3A (Homo sapiens, UniProt Q14432); experiment: as above; assay type: biochemical; settings: % inhibition of control enzyme activity, read-out: Enzymatic Activity (%)
T3 construct: Eurofins Cerep (contract assay)
Experimental: as §1

COX-2 = target: T4, COX-2 (Homo sapiens, UniProt P35354); experiment: as above; assay type: biochemical; settings: % inhibition of control enzyme activity, read-out: Enzymatic Activity (%)
T4 construct: Eurofins Cerep (contract assay)
T4 sequence (P35354 18-604): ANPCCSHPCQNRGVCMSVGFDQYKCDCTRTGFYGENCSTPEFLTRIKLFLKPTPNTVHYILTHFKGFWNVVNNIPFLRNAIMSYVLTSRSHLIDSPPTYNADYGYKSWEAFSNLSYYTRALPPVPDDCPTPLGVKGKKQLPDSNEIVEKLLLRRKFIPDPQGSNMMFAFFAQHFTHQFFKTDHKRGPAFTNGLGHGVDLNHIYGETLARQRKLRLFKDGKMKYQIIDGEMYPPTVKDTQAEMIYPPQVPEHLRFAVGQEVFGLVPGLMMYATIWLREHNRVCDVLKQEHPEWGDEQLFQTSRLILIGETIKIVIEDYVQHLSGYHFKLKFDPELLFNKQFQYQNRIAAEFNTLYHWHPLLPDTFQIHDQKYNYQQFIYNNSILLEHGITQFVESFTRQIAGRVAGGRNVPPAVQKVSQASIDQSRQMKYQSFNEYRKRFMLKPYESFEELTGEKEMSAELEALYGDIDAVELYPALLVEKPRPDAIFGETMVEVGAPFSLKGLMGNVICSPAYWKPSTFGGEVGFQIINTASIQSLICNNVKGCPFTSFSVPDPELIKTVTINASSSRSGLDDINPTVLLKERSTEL
Experimental: as §1

sst4 receptor = target: T5, sst4 receptor (Homo sapiens, UniProt P31391); experiment: sst4 receptor-linked G-protein activation, [35S]GTPγS binding assay on membranes of sst4-expressing CHO cells; assay type: biochemical; settings: for EC50: 1 nM to 10 µM, n = 3; for Emax: [35S]GTPγS binding, mean ± SEM, n = 3, read-out: Maximal activation over the basal activity of the receptor (efficacy)
T5 construct: expressed in transfected cells; host or cells: CHO cells
Experimental: Membrane fractions were prepared from CHO cells, which express the sst4 receptor, in Tris–ethylene glycol-bis(2-aminoethyl)tetraacetic acid (Tris–EGTA) buffer (50 mM Tris–HCl (Sigma, St. Louis, MO, USA), 1 mM EGTA (Sigma, St. Louis, MO, USA), 3 mM MgCl2 (Sigma, St. Louis, MO, USA), 100 mM NaCl (Sigma, St. Louis, MO, USA), pH 7.4, 10 μg of protein/sample). The fractions were incubated in the buffer containing 0.05 nM guanosine triphosphate (GTP) (BioChemica International Inc., Melbourne, Florida, USA), labeled on the gamma phosphate group with ^35S ([^35S]GTPγS) (Isotop Institute, Budapest, Hungary) and increasing concentrations (1 nM to 10 µM) of C1, C2, C3 and C4 compounds for 60 min at 30 °C, in the presence of 30 μM guanosine diphosphate (GDP) (Sigma, St. Louis, MO, USA). We determined the nonspecific binding in the presence of 10 μM unlabeled GTPγS and total binding in the absence of test compounds. Samples were filtrated through Whatman GF/B glass fiber filters using 48-well Slot Blot Manifold from Cleaver Scientific (Cleaver Scientific Ltd., Rugby, Warwickshire, United Kingdom). Filters were washed with ice-cold 50 mM Tris–HCl buffer (pH 7.4) and radioactivity was measured in a β-counter (PerkinElmer Inc., Waltham, MA, USA). The test-compound-induced G-protein activation was given as percentage over the specific [^35S]GTPγS binding detected in the absence of agonists.
(§2) In the sst4 receptor activation assay, all the compounds were dissolved in dimethyl sulfoxide (DMSO) (Szkarabeusz Ltd., Pécs, Hungary). The concentration of the stock solutions was 10 mM and was diluted with distilled water to reach the final concentrations. For the in vivo experiments, 1 mg of the compounds was rubbed dry in a braying mortar, suspended thoroughly in 1 mL 1.25% methylcellulose (MC) (Pharmacy of University of Pécs, Pécs, Hungary) solution and then dissolved in sterile bidistilled water to get a 1000 µg/mL stock solution freshly every experimental day. Most microsuspensions looked opalescent; they were shaken properly, sonicated, and further diluted with 1.25% MC to obtain the 25 µg/mL solution for oral administrations (0.2 mL/10 g body weight for the 500 µg/kg dose). The solutions were shaken and sonicated again directly before use. The vehicle was always 1.25% MC dissolved in sterile bidistilled water.

Male NMRI mice [1] = experiment: Partial sciatic nerve ligation-induced chronic traumatic neuropathic mechanical hyperalgesia; assay type: in vivo, mouse; settings: for Mechanonociceptive threshold of operated limb, 1 h after treatment / Neuropathic mechanical hyperalgesia, 1 h after treatment / Mechanonociceptive threshold of operated limb, before treatment / Neuropathic mechanical hyperalgesia, before treatment: day 7 after sciatic nerve ligation, n = 8; for Mechanonociceptive threshold of operated limb, 1 h after treatment / Neuropathic mechanical hyperalgesia, 1 h after treatment: 500 µg/kg oral, 1 h later; for Mechanonociceptive threshold of operated limb, before treatment / Neuropathic mechanical hyperalgesia, before treatment: pretreatment self-control; for Anti-hyperalgesic effect on neuropathic mechanical hyperalgesia: traumatic nerve injury, single oral 500 µg/kg
Experimental: After conditioning and two control mechanonociceptive measurements on 2 consecutive days, mice were anaesthetized by the combination of ketamine (100 mg/kg, i.p.) and xylazine (10 mg/kg, i.p.). Traumatic mononeuropathy was achieved by one-third to one-half part ligation of the right sciatic nerve. Significant decrease in the mechanical threshold develops 7 days after operation. The mechanonociceptive threshold of the plantar surface of the hindpaws was measured by DPA on the 7th postoperative day. The paw withdrawal threshold was obtained in grams (the maximal value was 10 g; ramp time of 4 s). The compounds (500 µg/kg) or the vehicle were administered orally on day 7, one hour before the repeated measurement. The experiment consisted of separate series on 3 consecutive days, and there were 2–3 vehicle-treated control animals in every series. Therefore, each group contained 8 mice.
as §2
Male NMRI mice (8–12 weeks old) bred in the Laboratory Animal House of the Department of Pharmacology and Pharmacotherapy of the University of Pecs were kept in standard plastic cages at 24–25 °C, under a 12–12 h light–dark cycle and provided with standard rodent chow and water ad libitum. All experimental procedures complied with the recommendations of the 1998/XXVIII Act of the Hungarian Parliament on Animal Protection and Consideration Decree of Scientific Procedures of Animal Experiments (63/2010) and were approved by the Ethics Committee on Animal Research of Pecs University according to the Ethical Codex of Animal Experiments; license was given (license No. BA1/35/55-50/2017). We made all efforts to minimize the number and suffering of the animals used in this study.

D2S = target: T6, D2S (Homo sapiens, UniProt P14416); experiment: Selectivity profile (Eurofins Cerep), cellular agonist/antagonist effect; assay type: cell-based; settings: 1 µM
T6 construct: Eurofins Cerep (contract assay)
Experimental: as §1

Mu (MOP) = target: T7, Mu (MOP) (Homo sapiens, UniProt P35372); experiment: as above; assay type: cell-based; settings: 1 µM
T7 construct: Eurofins Cerep (contract assay)
Experimental: as §1

D1 = target: T8, D1 (Homo sapiens, UniProt P21728); experiment: as above; assay type: cell-based; settings: 1 µM
T8 construct: Eurofins Cerep (contract assay)
Experimental: as §1

CB2 = target: T9, CB2 (Homo sapiens, UniProt P34972); experiment: as above; assay type: cell-based; settings: 1 µM
T9 construct: Eurofins Cerep (contract assay)
Experimental: as §1

Kappa (KOP) = target: T10, Kappa (KOP) (Homo sapiens, UniProt P41145); experiment: as above; assay type: cell-based; settings: 1 µM
T10 construct: Eurofins Cerep (contract assay)
Experimental: as §1

CB1 = target: T11, CB1 (Homo sapiens, UniProt P21554); experiment: as above; assay type: cell-based; settings: 1 µM
T11 construct: Eurofins Cerep (contract assay)
Experimental: as §1

Delta (DOP) = target: T12, Delta (DOP) (Homo sapiens, UniProt P41143); experiment: as above; assay type: cell-based; settings: 1 µM
T12 construct: Eurofins Cerep (contract assay)
Experimental: as §1

Male NMRI mice [2] = experiment: RTX-induced acute neurogenic inflammatory thermal allodynia and mechanical hyperalgesia; assay type: in vivo, mouse; settings: oral pretreatment 1 h before intraplantar RTX, printed dose 500 µg/kg; for Effect on acute neurogenic inflammatory heat hyperalgesia: at 10 and 30 min; for Effect on RTX-induced mechanical hyperalgesia: at 30 min
Experimental: The investigated compounds (500 µg/kg p.o.) or the vehicle were administered orally 1 h before the induction of the acute neurogenic inflammation by intraplantar RTX (Sigma, St. Louis, MO, USA) injection (20 µL, 0.1 µg/mL) into the right hindpaw. RTX evokes an acute neurogenic inflammatory reaction with the development of a rapid thermal allodynia, mainly due to peripheral sensitization mechanisms, and a later developing mechanical hyperalgesia due also to central sensitization. The nociceptive heat threshold was determined before (control) and 10, 20 and 30 min after RTX administration with an increasing-temperature hot plate (IITC Life Science, Woodland Hills, CA, USA). […] The mechanonociceptive threshold was measured with an electronic von Frey device (dynamic plantar aesthesiometer (DPA), Ugo Basile, Comerio, Italy) prior to RTX injection and 30, 60 and 90 min afterwards. The measurement at 30 min was performed immediately after the last heat threshold measurement. The experiment consisted of two separate series on consecutive days and the number of animals in the control group was six per day. Therefore, the control group contained 12 mice, and six and five mice were used in the C1- and C2-treated groups, respectively.
as §2
Male NMRI mice (8–12 weeks old) bred in the Laboratory Animal House of the Department of Pharmacology and Pharmacotherapy of the University of Pecs were kept in standard plastic cages at 24–25 °C, under a 12–12 h light–dark cycle and provided with standard rodent chow and water ad libitum. […]

Ca2+ channel = experiment: Selectivity profile (Eurofins Cerep), radioligand binding; settings: 1 µM, % inhibition of binding of radiolabeled ligand
Experimental: as §1

K+ channel hERG = target: T13, K+ channel hERG (Homo sapiens, UniProt Q12809); experiment: as above; settings: 1 µM, % inhibition of binding of radiolabeled ligand
T13 construct: Eurofins Cerep (contract assay)
Experimental: as §1

[3] = % inhibition of control reference agonist response
[4] = % of control response to reference agonist

T5 sequence (P31391 whole entry): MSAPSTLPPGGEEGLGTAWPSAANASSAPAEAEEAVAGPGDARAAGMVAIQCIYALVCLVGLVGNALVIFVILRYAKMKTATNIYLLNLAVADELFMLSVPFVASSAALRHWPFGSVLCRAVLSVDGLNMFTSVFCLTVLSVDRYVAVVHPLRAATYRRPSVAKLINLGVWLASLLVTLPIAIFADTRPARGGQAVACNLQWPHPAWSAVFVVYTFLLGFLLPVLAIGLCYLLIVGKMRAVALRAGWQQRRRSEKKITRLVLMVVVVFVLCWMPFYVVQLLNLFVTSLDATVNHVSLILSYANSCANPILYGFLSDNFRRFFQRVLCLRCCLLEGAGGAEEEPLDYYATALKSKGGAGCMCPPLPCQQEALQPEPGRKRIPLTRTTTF
T12 sequence (P41143 whole entry): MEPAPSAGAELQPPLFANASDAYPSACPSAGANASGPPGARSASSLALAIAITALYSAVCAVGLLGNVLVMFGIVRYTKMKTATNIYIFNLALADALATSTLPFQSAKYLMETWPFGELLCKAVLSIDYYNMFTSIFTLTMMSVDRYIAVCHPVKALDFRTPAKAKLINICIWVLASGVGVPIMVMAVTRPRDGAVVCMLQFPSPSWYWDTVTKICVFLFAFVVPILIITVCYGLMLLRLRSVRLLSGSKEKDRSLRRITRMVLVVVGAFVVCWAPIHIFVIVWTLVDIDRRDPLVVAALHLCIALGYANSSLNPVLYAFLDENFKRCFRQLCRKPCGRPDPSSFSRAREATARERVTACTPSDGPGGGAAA
T11 sequence (P21554 whole entry): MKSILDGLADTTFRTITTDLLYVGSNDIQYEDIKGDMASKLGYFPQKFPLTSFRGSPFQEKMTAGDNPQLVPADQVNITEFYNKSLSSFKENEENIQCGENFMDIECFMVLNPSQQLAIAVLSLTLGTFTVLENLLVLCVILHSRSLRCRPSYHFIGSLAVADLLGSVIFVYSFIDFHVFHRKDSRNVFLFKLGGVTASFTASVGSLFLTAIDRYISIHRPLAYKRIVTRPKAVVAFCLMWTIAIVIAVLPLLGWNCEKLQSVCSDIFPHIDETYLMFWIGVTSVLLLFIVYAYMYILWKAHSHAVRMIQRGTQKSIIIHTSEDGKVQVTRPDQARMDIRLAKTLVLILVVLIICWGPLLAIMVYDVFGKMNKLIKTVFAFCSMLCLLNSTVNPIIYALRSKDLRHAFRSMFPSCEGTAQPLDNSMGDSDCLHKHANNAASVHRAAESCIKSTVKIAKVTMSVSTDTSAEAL
T6 sequence (P14416 1-414 isoform P14416-2): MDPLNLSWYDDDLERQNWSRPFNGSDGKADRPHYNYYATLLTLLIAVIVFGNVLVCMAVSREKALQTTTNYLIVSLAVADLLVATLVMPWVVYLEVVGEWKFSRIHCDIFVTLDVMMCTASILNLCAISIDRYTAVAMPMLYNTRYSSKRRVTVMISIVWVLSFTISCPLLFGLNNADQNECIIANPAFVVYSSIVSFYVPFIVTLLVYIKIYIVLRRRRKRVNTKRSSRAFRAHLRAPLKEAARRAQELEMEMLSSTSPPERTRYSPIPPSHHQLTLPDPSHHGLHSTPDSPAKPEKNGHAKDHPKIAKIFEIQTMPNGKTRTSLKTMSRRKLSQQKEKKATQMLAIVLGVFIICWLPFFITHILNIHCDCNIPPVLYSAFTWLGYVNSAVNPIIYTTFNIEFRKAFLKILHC
T8 sequence (P21728 whole entry): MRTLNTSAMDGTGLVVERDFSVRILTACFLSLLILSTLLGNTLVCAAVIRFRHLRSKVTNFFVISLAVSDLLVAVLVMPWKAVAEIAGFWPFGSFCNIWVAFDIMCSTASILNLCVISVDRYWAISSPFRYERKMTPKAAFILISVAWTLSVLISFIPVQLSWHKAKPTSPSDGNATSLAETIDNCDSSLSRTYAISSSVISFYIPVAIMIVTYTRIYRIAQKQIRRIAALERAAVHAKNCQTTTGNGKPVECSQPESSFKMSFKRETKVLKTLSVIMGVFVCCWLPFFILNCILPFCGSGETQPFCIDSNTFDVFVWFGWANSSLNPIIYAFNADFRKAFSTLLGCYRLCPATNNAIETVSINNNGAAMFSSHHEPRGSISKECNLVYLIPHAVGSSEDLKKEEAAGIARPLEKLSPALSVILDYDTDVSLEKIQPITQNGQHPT
T7 sequence (P35372 whole entry): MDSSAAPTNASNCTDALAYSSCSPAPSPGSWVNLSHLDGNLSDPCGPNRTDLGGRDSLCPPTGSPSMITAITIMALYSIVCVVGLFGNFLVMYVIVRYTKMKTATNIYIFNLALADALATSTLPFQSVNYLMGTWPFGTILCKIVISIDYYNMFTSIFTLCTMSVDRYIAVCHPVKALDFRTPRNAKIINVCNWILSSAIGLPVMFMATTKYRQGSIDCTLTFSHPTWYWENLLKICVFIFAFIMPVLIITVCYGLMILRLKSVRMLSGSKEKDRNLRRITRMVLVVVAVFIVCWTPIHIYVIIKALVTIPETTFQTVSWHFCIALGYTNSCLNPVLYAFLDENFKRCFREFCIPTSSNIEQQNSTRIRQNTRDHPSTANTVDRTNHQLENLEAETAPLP
T9 sequence (P34972 whole entry): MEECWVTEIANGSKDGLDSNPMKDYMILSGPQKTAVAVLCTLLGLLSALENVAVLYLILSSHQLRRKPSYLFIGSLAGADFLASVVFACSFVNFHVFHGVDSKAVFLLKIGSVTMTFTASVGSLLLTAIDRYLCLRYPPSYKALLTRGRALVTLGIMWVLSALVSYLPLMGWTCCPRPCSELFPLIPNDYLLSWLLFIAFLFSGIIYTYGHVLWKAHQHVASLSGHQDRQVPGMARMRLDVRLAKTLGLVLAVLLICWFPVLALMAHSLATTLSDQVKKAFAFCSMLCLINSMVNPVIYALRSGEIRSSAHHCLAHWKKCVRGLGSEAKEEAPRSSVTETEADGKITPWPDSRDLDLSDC
T10 sequence (P41145 whole entry): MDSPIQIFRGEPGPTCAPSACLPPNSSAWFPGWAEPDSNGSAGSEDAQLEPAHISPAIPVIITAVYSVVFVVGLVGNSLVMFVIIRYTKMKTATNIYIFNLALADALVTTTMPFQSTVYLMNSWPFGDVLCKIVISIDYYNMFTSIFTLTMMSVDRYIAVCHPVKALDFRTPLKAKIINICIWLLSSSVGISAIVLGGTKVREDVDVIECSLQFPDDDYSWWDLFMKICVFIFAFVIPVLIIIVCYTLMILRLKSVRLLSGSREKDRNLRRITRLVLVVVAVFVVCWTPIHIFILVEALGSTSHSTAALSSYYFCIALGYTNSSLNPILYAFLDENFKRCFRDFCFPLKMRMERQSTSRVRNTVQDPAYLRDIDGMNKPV
T3 sequence (Q14432 whole entry, species assumed): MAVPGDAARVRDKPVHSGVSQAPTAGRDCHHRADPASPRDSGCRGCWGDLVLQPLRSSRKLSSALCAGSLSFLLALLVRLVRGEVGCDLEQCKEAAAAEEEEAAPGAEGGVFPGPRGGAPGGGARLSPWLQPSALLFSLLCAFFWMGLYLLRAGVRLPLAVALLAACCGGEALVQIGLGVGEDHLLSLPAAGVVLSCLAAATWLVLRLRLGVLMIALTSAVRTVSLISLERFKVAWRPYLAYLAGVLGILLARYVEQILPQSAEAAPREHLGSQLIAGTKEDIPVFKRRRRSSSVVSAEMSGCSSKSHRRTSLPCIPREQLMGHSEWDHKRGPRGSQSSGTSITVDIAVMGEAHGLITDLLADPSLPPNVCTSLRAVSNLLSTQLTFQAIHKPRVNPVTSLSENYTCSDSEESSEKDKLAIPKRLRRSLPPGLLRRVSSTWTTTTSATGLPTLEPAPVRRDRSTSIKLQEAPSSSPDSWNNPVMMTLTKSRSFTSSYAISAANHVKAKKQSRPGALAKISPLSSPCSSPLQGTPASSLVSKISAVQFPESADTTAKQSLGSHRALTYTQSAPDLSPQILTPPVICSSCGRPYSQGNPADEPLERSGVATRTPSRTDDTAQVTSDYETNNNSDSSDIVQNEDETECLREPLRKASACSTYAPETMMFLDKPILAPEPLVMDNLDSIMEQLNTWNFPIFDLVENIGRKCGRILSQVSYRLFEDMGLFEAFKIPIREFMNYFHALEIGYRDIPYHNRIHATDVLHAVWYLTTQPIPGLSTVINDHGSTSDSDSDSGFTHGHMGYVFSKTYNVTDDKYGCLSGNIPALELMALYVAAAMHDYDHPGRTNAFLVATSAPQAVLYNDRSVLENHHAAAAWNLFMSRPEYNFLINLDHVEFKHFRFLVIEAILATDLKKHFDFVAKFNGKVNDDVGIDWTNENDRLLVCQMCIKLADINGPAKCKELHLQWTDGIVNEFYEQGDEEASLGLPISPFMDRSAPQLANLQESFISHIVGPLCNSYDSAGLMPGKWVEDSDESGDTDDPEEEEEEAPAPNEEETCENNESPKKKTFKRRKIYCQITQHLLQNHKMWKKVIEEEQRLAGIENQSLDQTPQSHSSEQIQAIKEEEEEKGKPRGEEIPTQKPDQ
T1 sequence (Q08499 303-809 limits assumed): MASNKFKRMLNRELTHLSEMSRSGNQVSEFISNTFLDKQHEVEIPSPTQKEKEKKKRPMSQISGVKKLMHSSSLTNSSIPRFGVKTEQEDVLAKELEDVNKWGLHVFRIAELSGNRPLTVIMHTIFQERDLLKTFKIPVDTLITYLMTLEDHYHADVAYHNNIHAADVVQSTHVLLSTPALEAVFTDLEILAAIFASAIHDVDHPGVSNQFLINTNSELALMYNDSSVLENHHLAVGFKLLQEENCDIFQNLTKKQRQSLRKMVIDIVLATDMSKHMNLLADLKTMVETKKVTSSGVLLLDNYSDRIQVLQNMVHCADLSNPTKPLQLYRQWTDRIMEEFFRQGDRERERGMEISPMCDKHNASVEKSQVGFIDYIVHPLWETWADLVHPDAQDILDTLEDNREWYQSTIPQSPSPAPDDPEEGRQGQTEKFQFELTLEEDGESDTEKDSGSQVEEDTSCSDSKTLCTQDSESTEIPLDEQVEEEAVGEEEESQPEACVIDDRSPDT

c1ccc(CCNc2ncnc3c2ccn3Cc2ccccc2)cc1 [Compound 1, (7-Benzyl-7H-pyrrolo[2,3-d]pyrimidin-4-yl)-phenethyl-amine]
inhibition at 1 µM (PDE4D2): -0.6%
inhibition at 1 µM (MAOA): 2.7%
inhibition at 1 µM (PDE3A): -15%
inhibition at 1 µM (COX-2): -10.4%
EC50 (sst4 receptor): 37 nM
Emax (sst4 receptor): 218%
Mechanonociceptive threshold of operated limb, 1 h after treatment (Male NMRI mice [1]): 8.53 ± 0.37 g
Neuropathic mechanical hyperalgesia, 1 h after treatment (Male NMRI mice [1]): 9.98% ± 3.92
Mechanonociceptive threshold of operated limb, before treatment (Male NMRI mice [1]): 6.51 ± 0.18 g
Neuropathic mechanical hyperalgesia, before treatment (Male NMRI mice [1]): 31.22% ± 2.11
Anti-hyperalgesic effect on neuropathic mechanical hyperalgesia (Male NMRI mice [1]): approximately 70%
Antagonist Effect (%) (D2S; [3]): −11.5%
Agonist Effect (%) (D2S; [4]): 17.2%
Antagonist Effect (%) (Mu (MOP); [3]): 20.2%
Agonist Effect (%) (Mu (MOP); [4]): 5.5%
Antagonist Effect (%) (D1; [3]): −10%
Agonist Effect (%) (D1; [4]): 3.3%
Antagonist Effect (%) (CB2; [3]): 7.7%
Agonist Effect (%) (CB2; [4]): 58.9%
Antagonist Effect (%) (Kappa (KOP); [3]): 23.6%
Agonist Effect (%) (Kappa (KOP); [4]): −1.5%
Antagonist Effect (%) (CB1; [3]): −1.5%
Agonist Effect (%) (CB1; [4]): 30.8%
Antagonist Effect (%) (Delta (DOP); [3]): −1.4%
Agonist Effect (%) (Delta (DOP); [4]): −0.3%
Effect on acute neurogenic inflammatory heat hyperalgesia (Male NMRI mice [2]): significantly decreased
Effect on RTX-induced mechanical hyperalgesia (Male NMRI mice [2]): significantly decreased
Inhibition of radioligand binding (Ca2+ channel): 19.4%
Inhibition of radioligand binding (%) (K+ channel hERG): 23.6%

COc1ccc(CCNc2ncnc3c2c(C)c(C)n3Cc2ccccc2)cc1 [Compound 2, (7-Benzyl-5,6-dimethyl-7H-pyrrolo[2,3-d]pyrimidin-4-yl)-[2-(4-methoxy-phenyl)-ethyl]-amine]
EC50 (sst4 receptor): 66 nM
Emax (sst4 receptor): 203%
Mechanonociceptive threshold of operated limb, 1 h after treatment (Male NMRI mice [1]): 8.04 ± 0.31 g
Neuropathic mechanical hyperalgesia, 1 h after treatment (Male NMRI mice [1]): 15.70% ± 2.84
Mechanonociceptive threshold of operated limb, before treatment (Male NMRI mice [1]): 6.53 ± 0.30 g
Neuropathic mechanical hyperalgesia, before treatment (Male NMRI mice [1]): 31.39% ± 3.39
Anti-hyperalgesic effect on neuropathic mechanical hyperalgesia (Male NMRI mice [1]): 50%
Effect on acute neurogenic inflammatory heat hyperalgesia (Male NMRI mice [2]): not
Effect on RTX-induced mechanical hyperalgesia (Male NMRI mice [2]): not
